Results reported in ChEMBL document CHEMBL1275550, “In vitro activity of doripenem, a carbapenem for the treatment of challenging infections caused by gram-negative bacteria, against recent clinical isolates from the United States” (2008).
In brackets after ≈: the same amount, converted by molar mass.

Experiments:
Enterobacteriaceae [1] = assay: Antimicrobial activity against Enterobacteriaceae by broth microdilution method; assay type: functional
Pseudomonas aeruginosa [2] = assay: Antimicrobial activity against Ceftazidime non-susceptible Pseudomonas aeruginosa by broth microdilution method; assay type: functional
Pseudomonas aeruginosa [3] = assay: Antimicrobial activity against Pseudomonas aeruginosa isolated from non-ICU patient by broth microdilution method
Acinetobacter [4] = assay: Antimicrobial activity against imipenem non-susceptible Acinetobacter assessed as susceptible isolate by broth microdilution method; assay type: functional
Pseudomonas aeruginosa [5] = assay: Antimicrobial activity against imipenem non-susceptible Pseudomonas aeruginosa assessed as susceptible isolate by broth microdilution method; assay type: functional
Pseudomonas aeruginosa [6] = assay: Antimicrobial activity against Pseudomonas aeruginosa assessed as susceptible isolate by broth microdilution method; assay type: functional
Proteus mirabilis [7] = assay: Antimicrobial activity against Non-ESBL Proteus mirabilis by broth microdilution method; assay type: functional
Serratia marcescens [8] = assay: Antimicrobial activity against Ceftazidime susceptible Serratia marcescens assessed as susceptible isolate by broth microdilution method; assay type: functional
Pseudomonas aeruginosa [9] = assay: Antimicrobial activity against Pseudomonas aeruginosa isolated from ICU patient assessed as susceptible isolate by broth microdilution method
Citrobacter [10] = assay: Antimicrobial activity against Citrobacter with nonderepressed AmpC beta-lactamsae by broth microdilution method; assay type: functional
Proteus mirabilis [11] = assay: Antimicrobial activity against ESBL producing Proteus mirabilis by broth microdilution method; assay type: functional
Escherichia coli [12] = assay: Antimicrobial activity against ESBL producing Escherichia coli by broth microdilution method; assay type: functional
Klebsiella pneumoniae [13] = assay: Antimicrobial activity against Non-ESBL Klebsiella pneumoniae by broth microdilution method; assay type: functional
Streptococcus pneumoniae [14] = assay: Antimicrobial activity against penicillin-susceptible Streptococcus pneumoniae by broth microdilution method; assay type: functional; settings: Streptococcus pneumoniae
Pseudomonas aeruginosa [15] = assay: Antimicrobial activity against Pseudomonas aeruginosa by broth microdilution method; assay type: functional
Staphylococcus [16] = assay: Antimicrobial activity against methicillin-resistant coagulase-negative Staphylococcus by broth microdilution method; assay type: functional
Enterobacter cloacae [17] = assay: Antimicrobial activity against Enterobacter cloacae assessed as susceptible isolate by broth microdilution method; assay type: functional
Enterobacteriaceae [18] = assay: Antimicrobial activity against Enterobacteriaceae assessed as susceptible isolate by broth microdilution method; assay type: functional
Enterobacteriaceae [19] = assay: Antimicrobial activity against Ceftazidime non-susceptible Enterobacteriaceae assessed as susceptible isolate by broth microdilution method; assay type: functional
Enterobacter cloacae [20] = assay: Antimicrobial activity against Enterobacter cloacae with nonderepressed AmpC beta-lactamsae assessed as susceptible isolate by broth microdilution method; assay type: functional
Pseudomonas aeruginosa [21] = assay: Antimicrobial activity against Ceftazidime non-susceptible Pseudomonas aeruginosa assessed as susceptible isolate by broth microdilution method; assay type: functional
Escherichia coli [22] = assay: Antimicrobial activity against Escherichia coli by broth microdilution method; assay type: functional
Klebsiella pneumoniae [23] = assay: Antimicrobial activity against Non-ESBL Klebsiella pneumoniae assessed as susceptible isolate by broth microdilution method; assay type: functional
Escherichia coli [24] = assay: Antimicrobial activity against Non-ESBL Escherichia coli by broth microdilution method; assay type: functional
Serratia marcescens [25] = assay: Antimicrobial activity against Ceftazidime non-susceptible Serratia marcescens assessed as susceptible isolate by broth microdilution method; assay type: functional
Staphylococcus aureus = assay: Antimicrobial activity against methicillin-susceptible Staphylococcus aureus by broth microdilution method; assay type: functional
Klebsiella pneumoniae [26] = assay: Antimicrobial activity against ESBL producing Klebsiella pneumoniae by broth microdilution method; assay type: functional
Escherichia coli [27] = assay: Antimicrobial activity against Escherichia coli assessed as susceptible isolate by broth microdilution method; assay type: functional
Enterobacter cloacae [28] = assay: Antimicrobial activity against Enterobacter cloacae with derepressed AmpC beta-lactamsae assessed as susceptible isolate by broth microdilution method; assay type: functional
Streptococcus pneumoniae [29] = assay: Antimicrobial activity against penicillin-intermediate Streptococcus pneumoniae by broth microdilution method; assay type: functional
Enterobacteriaceae [30] = assay: Antimicrobial activity against ceftazidime-susceptible Enterobacteriaceae assessed as susceptible isolate by broth microdilution method; assay type: functional
Serratia marcescens [31] = assay: Antimicrobial activity against Ceftazidime susceptible Serratia marcescens assessed as resistant isolate by broth microdilution method; assay type: functional
Pseudomonas aeruginosa [32] = assay: Antimicrobial activity against Pseudomonas aeruginosa isolated from ICU patient assessed as intermediate isolate by broth microdilution method
Acinetobacter [33] = assay: Antimicrobial activity against imipenem non-susceptible Acinetobacter assessed as intermediate isolate by broth microdilution method; assay type: functional
Pseudomonas aeruginosa [34] = assay: Antimicrobial activity against Ceftazidime non-susceptible Pseudomonas aeruginosa assessed as resistant isolate by broth microdilution method; assay type: functional
Staphylococcus [35] = assay: Antimicrobial activity against methicillin-susceptible coagulase-negative Staphylococcus assessed as susceptible isolate by broth microdilution method; assay type: functional
Acinetobacter [36] = assay: Antimicrobial activity against Acinetobacter assessed as resistant isolate by broth microdilution method; assay type: functional
Proteus mirabilis [37] = assay: Antimicrobial activity against Non-ESBL Proteus mirabilis assessed as intermediate isolate by broth microdilution method; assay type: functional
Pseudomonas aeruginosa [38] = assay: Antimicrobial activity against Pseudomonas aeruginosa isolated from non-ICU patient assessed as resistant isolate by broth microdilution method
Escherichia coli [39] = assay: Antimicrobial activity against Escherichia coli assessed as intermediate isolate by broth microdilution method; assay type: functional
Serratia marcescens [40] = assay: Antimicrobial activity against Serratia marcescens assessed as resistant isolate by broth microdilution method; assay type: functional
Escherichia coli [41] = assay: Antimicrobial activity against ESBL producing Escherichia coli assessed as intermediate isolate by broth microdilution method; assay type: functional
Citrobacter [42] = assay: Antimicrobial activity against Citrobacter assessed as intermediate isolate by broth microdilution method; assay type: functional
Klebsiella pneumoniae [43] = assay: Antimicrobial activity against Klebsiella pneumoniae assessed as intermediate isolate by broth microdilution method; assay type: functional
Acinetobacter [44] = assay: Antimicrobial activity against imipenem susceptible Acinetobacter assessed as intermediate isolate by broth microdilution method; assay type: functional
Pseudomonas aeruginosa [45] = assay: Antimicrobial activity against imipenem non-susceptible Pseudomonas aeruginosa assessed as intermediate isolate by broth microdilution method; assay type: functional
Citrobacter [46] = assay: Antimicrobial activity against Citrobacter with derepressed AmpC beta-lactamsae assessed as intermediate isolate by broth microdilution method; assay type: functional
Enterobacteriaceae [47] = assay: Antimicrobial activity against Ceftazidime non-susceptible Enterobacteriaceae assessed as resistant isolate by broth microdilution method; assay type: functional
Pseudomonas aeruginosa [48] = assay: Antimicrobial activity against Pseudomonas aeruginosa assessed as resistant isolate by broth microdilution method; assay type: functional
Streptococcus pneumoniae [49] = assay: Antimicrobial activity against penicillin-intermediate Streptococcus pneumoniae assessed as intermediate isolate by broth microdilution method; assay type: functional
Klebsiella pneumoniae [50] = assay: Antimicrobial activity against Non-ESBL Klebsiella pneumoniae assessed as intermediate isolate by broth microdilution method; assay type: functional
Enterobacter cloacae [51] = assay: Antimicrobial activity against Enterobacter cloacae assessed as intermediate isolate by broth microdilution method; assay type: functional
Escherichia coli [52] = assay: Antimicrobial activity against Non-ESBL Escherichia coli assessed as intermediate isolate by broth microdilution method; assay type: functional
[53] = Staphylococcus aureus, read-out: MIC50

SMILES: C[C@@H](O)[C@H]1C(=O)N2C(C(=O)O)=C(S[C@@H]3CN[C@H](CNS(N)(=O)=O)C3)[C@H](C)[C@H]12 [DORIPENEM]
- MIC50 (Enterobacteriaceae [1]): 0.03 µg/mL (≈ 0.0713 µM)
- MIC90 (Enterobacteriaceae [1]): 0.12 µg/mL (≈ 0.285 µM)
- MIC50 (Pseudomonas aeruginosa [2]): 1 µg/mL (≈ 2.38 µM)
- MIC90 (Pseudomonas aeruginosa [2]): 16 µg/mL (≈ 38 µM)
- Activity (Pseudomonas aeruginosa [3]): 87.9%
- Activity (Acinetobacter [4]): 0%
- Activity (Pseudomonas aeruginosa [5]): 55.6%
- Activity (Pseudomonas aeruginosa [6]): 88.3%
- MIC50 (Proteus mirabilis [7]): 0.12 µg/mL (≈ 0.285 µM)
- MIC90 (Proteus mirabilis [7]): 0.5 µg/mL (≈ 1.19 µM)
- Activity (Serratia marcescens [8]): 98.6%
- Activity (Pseudomonas aeruginosa [9]): 78.4%
- MIC50 (Citrobacter [10]): 0.03 µg/mL (≈ 0.0713 µM)
- MIC90 (Citrobacter [10]): 0.06 µg/mL (≈ 0.143 µM)
- MIC (Proteus mirabilis [11]): 0.06 µg/mL (≈ 0.143 µM)
- MIC50 (Escherichia coli [12]): 0.03 µg/mL (≈ 0.0713 µM)
- MIC90 (Escherichia coli [12]): 0.06 µg/mL (≈ 0.143 µM)
- MIC50 (Klebsiella pneumoniae [13]): 0.03 µg/mL (≈ 0.0713 µM)
- MIC90 (Klebsiella pneumoniae [13]): 0.06 µg/mL (≈ 0.143 µM)
- MIC50 (Streptococcus pneumoniae [14]): ≤ 0.015 µg/mL
- MIC90 (Streptococcus pneumoniae [14]; read-out: MIC90): ≤ 0.015 µg/mL
- MIC50 (Pseudomonas aeruginosa [15]): 0.25 µg/mL (≈ 0.595 µM)
- MIC90 (Pseudomonas aeruginosa [15]): 4 µg/mL (≈ 9.51 µM)
- MIC50 (Staphylococcus [16]): 1 µg/mL (≈ 2.38 µM)
- MIC90 (Staphylococcus [16]): 8 µg/mL (≈ 19 µM)
- Activity (Enterobacter cloacae [17]): 99.2%
- Activity (Enterobacteriaceae [18]): 99.5%
- Activity (Enterobacteriaceae [19]): 96.7%
- Activity (Enterobacter cloacae [20]): 99.3%
- Activity (Pseudomonas aeruginosa [21]): 60.9%
- MIC (Escherichia coli [22]): ≤ 0.015 µg/mL
- MIC50 (Escherichia coli [22]): ≤ 0.015 µg/mL
- MIC90 (Escherichia coli [22]): 0.03 µg/mL (≈ 0.0713 µM)
- Activity (Klebsiella pneumoniae [23]): 99.7%
- MIC (Escherichia coli [24]): ≤ 0.015 µg/mL
- MIC50 (Escherichia coli [24]): ≤ 0.015 µg/mL
- MIC90 (Escherichia coli [24]): 0.03 µg/mL (≈ 0.0713 µM)
- Activity (Serratia marcescens [25]): 100%
- MIC50 (Staphylococcus aureus; [53]): 0.03 µg/mL (≈ 0.0713 µM)
- MIC90 (Staphylococcus aureus; Staphylococcus aureus, read-out: MIC90): 0.06 µg/mL (≈ 0.143 µM)
- MIC50 (Klebsiella pneumoniae [26]): 0.03 µg/mL (≈ 0.0713 µM)
- MIC90 (Klebsiella pneumoniae [26]): 0.12 µg/mL (≈ 0.285 µM)
- Activity (Escherichia coli [27]): 99.8%
- Activity (Enterobacter cloacae [28]): 99%
- MIC50 (Streptococcus pneumoniae [29]): 0.03 µg/mL (≈ 0.0713 µM)
- MIC90 (Streptococcus pneumoniae [29]): 0.5 µg/mL (≈ 1.19 µM)
- Activity (Enterobacteriaceae [30]): 99.7%

SMILES: C[C@@H](O)[C@H]1C(=O)N2C(C(=O)O)=C(S[C@@H]3CN[C@H](C(=O)N(C)C)C3)[C@H](C)[C@H]12 [MEROPENEM]
- Activity (Serratia marcescens [31]): 0.8%
- MIC50 (Enterobacteriaceae [1]): 0.06 µg/mL (≈ 0.156 µM)
- MIC90 (Enterobacteriaceae [1]): 0.12 µg/mL (≈ 0.313 µM)
- MIC50 (Pseudomonas aeruginosa [2]): 4 µg/mL (≈ 10.4 µM)
- MIC90 (Pseudomonas aeruginosa [2]): 32 µg/mL (≈ 83.4 µM)
- Activity (Pseudomonas aeruginosa [3]): 83.9%
- Activity (Acinetobacter [4]): 0%
- Activity (Pseudomonas aeruginosa [5]): 42.5%
- Activity (Pseudomonas aeruginosa [6]): 85.3%
- MIC50 (Proteus mirabilis [7]): 0.12 µg/mL (≈ 0.313 µM)
- MIC90 (Proteus mirabilis [7]): 0.25 µg/mL (≈ 0.652 µM)
- Activity (Serratia marcescens [8]): 99.2%
- Activity (Pseudomonas aeruginosa [32]): 7.9%
- Activity (Pseudomonas aeruginosa [9]): 74.1%
- Activity (Acinetobacter [33]): 0%
- MIC50 (Citrobacter [10]): 0.06 µg/mL (≈ 0.156 µM)
- MIC90 (Citrobacter [10]): 0.06 µg/mL (≈ 0.156 µM)
- MIC (Proteus mirabilis [11]): 0.12 µg/mL (≈ 0.313 µM)
- MIC50 (Escherichia coli [12]): 0.06 µg/mL (≈ 0.156 µM)
- MIC90 (Escherichia coli [12]): 0.06 µg/mL (≈ 0.156 µM)
- MIC50 (Klebsiella pneumoniae [13]): 0.06 µg/mL (≈ 0.156 µM)
- MIC90 (Klebsiella pneumoniae [13]): 0.06 µg/mL (≈ 0.156 µM)
- Activity (Pseudomonas aeruginosa [34]): 35.5%
- Activity (Staphylococcus [35]): 99.4%
- MIC50 (Streptococcus pneumoniae [14]): ≤ 0.015 µg/mL
- Activity (Acinetobacter [36]): 18%
- MIC50 (Pseudomonas aeruginosa [15]): 1 µg/mL (≈ 2.61 µM)
- MIC90 (Pseudomonas aeruginosa [15]): 16 µg/mL (≈ 41.7 µM)
- Activity (Proteus mirabilis [37]): 0%
- Activity (Enterobacter cloacae [17]): 99.6%
- Activity (Pseudomonas aeruginosa [38]): 12.4%
- Activity (Escherichia coli [39]): 0%
- Activity (Enterobacteriaceae [18]): 99.8%
- Activity (Enterobacteriaceae [19]): 98%
- Activity (Serratia marcescens [40]): 0.8%
- Activity (Escherichia coli [41]): 0%
- Activity (Citrobacter [42]): 0%
- Activity (Enterobacter cloacae [20]): 99.5%
- Activity (Pseudomonas aeruginosa [21]): 60.9%
- Activity (Klebsiella pneumoniae [43]): 0%
- MIC50 (Escherichia coli [22]): 0.03 µg/mL (≈ 0.0782 µM)
- MIC90 (Escherichia coli [22]): 0.06 µg/mL (≈ 0.156 µM)
- Activity (Klebsiella pneumoniae [23]): 99.8%
- MIC50 (Escherichia coli [24]): 0.03 µg/mL (≈ 0.0782 µM)
- MIC90 (Escherichia coli [24]): 0.06 µg/mL (≈ 0.156 µM)
- Activity (Acinetobacter [44]): 1.7%
- Activity (Serratia marcescens [25]): 100%
- MIC50 (Staphylococcus aureus): 0.12 µg/mL (≈ 0.313 µM)
- MIC50 (Staphylococcus aureus; [53]): 0.06 µg/mL (≈ 0.156 µM)
- Activity (Pseudomonas aeruginosa [45]): 16.9%
- Activity (Citrobacter [46]): 0%
- Activity (Enterobacteriaceae [47]): 1.3%
- Activity (Pseudomonas aeruginosa [48]): 10.2%
- Activity (Streptococcus pneumoniae [49]): 83.9%
- MIC50 (Klebsiella pneumoniae [26]): 0.06 µg/mL (≈ 0.156 µM)
- MIC90 (Klebsiella pneumoniae [26]): 0.25 µg/mL (≈ 0.652 µM)
- Activity (Escherichia coli [27]): 100%
- Activity (Klebsiella pneumoniae [50]): 0%
- Activity (Enterobacter cloacae [51]): 0.4%
- Activity (Escherichia coli [52]): 0%
- Activity (Enterobacter cloacae [28]): 100%
- Activity (Enterobacteriaceae [30]): 99.6%
